According to DBAASP:
In brackets after ≈: the same amount, converted by molar mass. Several values for one entry are separate records, joined by “and”; a condition that tells them apart may be missing. Equal values may be shown once.

Key:
Assay in all cases: ≥ marks a high value that may be exact or a test limit, other limits are often not marked, values filed in µg/mL are converted to µM
Escherichia coli BL21AI = test system: Escherichia coli BL21AI
[1] = test system: Micrococcus luteus DSM 1790
Escherichia coli MG1655 = test system: Escherichia coli MG1655
[2] = test system: Pseudomonas aeruginosa PA7
[3] = test system: Pseudomonas aeruginosa PAO1
[4] = test system: Staphylococcus aureus NCTC 8325
[5] = test system: Bacillus subtilis KCTC 3068
[6] = test system: Enterococcus faecalis KCTC 2011
[7] = test system: Escherichia coli ATCC 25922
[8] = test system: Escherichia coli KCTC 1682
[9] = test system: Proteus vulgaris KCTC 2433
[10] = test system: Pseudomonas aeruginosa KCTC 1637
[11] = test system: Salmonella typhimurium KCTC 1926
[12] = test system: Staphylococcus aureus KCTC 1621
[13] = test system: Staphylococcus epidermidis ATCC 12228
[14] = test system: Staphylococcus epidermidis KCTC 1917
[15] = test system: Escherichia coli DH5alpha
[16] = test system: Pseudomonas aeruginosa NBRC 13275
[17] = test system: Staphylococcus aureus NBRC 13276
[18] = test system: Acinetobacter baumannii NM109
[19] = test system: Acinetobacter baumannii NM124
[20] = test system: Acinetobacter baumannii NM35
[21] = test system: Acinetobacter baumannii NM75
[22] = test system: Acinetobacter baumannii NM8
[23] = test system: Candida albicans ATCC 90028
[24] = test system: Enterococcus faecalis ATCC 29212
[25] = test system: Escherichia coli ATCC 25726
[26] = test system: Klebsiella pneumoniae ATCC 700603
[27] = test system: Pseudomonas aeruginosa ATCC 27853
[28] = test system: Staphylococcus aureus 145/08
[29] = test system: Staphylococcus aureus ATCC 25923
[30] = test system: Staphylococcus epidermidis RP62A/1
[31] = test system: Staphylococcus epidermidis RP62A
[32] = test system: Staphylococcus epidermidis T37/8
[33] = test system: Staphylococcus epidermidis T6/19
[34] = test system: Stenotrophomonas maltophilia B32/1
[35] = test system: Stenotrophomonas maltophilia B32/4
[36] = test system: Stenotrophomonas maltophilia B5/5
[37] = test system: Stenotrophomonas maltophilia B6/2
[38] = test system: Stenotrophomonas maltophilia U8908
Klebsiella pneumoniae = test system: Klebsiella pneumoniae
Staphylococcus aureus = test system: Staphylococcus aureus
Vibrio cholerae N16961 = test system: Vibrio cholerae N16961

CC[C@H](C)[C@H](NC(=O)[C@H](CCCN=C(N)N)NC(=O)[C@H](CCCN=C(N)N)NC(=O)[C@@H]1CCCN1C(=O)[C@@H]1CCCN1C(=O)[C@H](Cc1cnc[nH]1)NC(=O)[C@@H]1CCCN1C(=O)[C@H](CCCN=C(N)N)NC(=O)[C@@H]1CCCN1C(=O)[C@H](CC(C)C)NC(=O)[C@H](Cc1ccc(O)cc1)NC(=O)[C@@H]1CCCN1C(=O)[C@@H]1CCCN1C(=O)[C@H](CCCCN)NC(=O)[C@H](CC(=O)O)NC(=O)[C@@H](N)C(C)C)C(=O)N[C@@H](Cc1ccc(O)cc1)C(=O)N[C@@H](CC(N)=O)C(=O)O [VDKPPYLPRPHPPRRIYN]
MIC (Escherichia coli BL21AI): 28.2 µM (≈ 62.5 µg/mL)
MIC [1]: 14.1 µM (≈ 31.3 µg/mL)

CC[C@H](C)[C@H](NC(=O)[C@@H](N)CCCCN)C(=O)N1CCC[C@H]1C(=O)N1CCC[C@H]1C(=O)N[C@H](C(=O)N[C@H](C(=O)N[C@@H](CCCCN)C(=O)N[C@@H](CC(=O)O)C(=O)N[C@H](C(=O)N[C@@H](CC(C)C)C(=O)N[C@@H](CCCCN)C(=O)N[C@@H](CCCCN)C(=O)N[C@H](C(=O)N[C@@H](C)C(=O)N[C@@H](CCCCN)C(=O)NCC(=O)N[C@H](C(=O)N[C@@H](CC(C)C)C(=O)N[C@@H](CO)C(=O)N[C@@H](C)C(=O)N[C@H](C(=O)N[C@@H](C)C(=O)NCC(=O)N[C@@H](C)C(=O)N[C@@H](CC(C)C)C(=O)N[C@@H](CO)C(=O)O)C(C)C)C(C)C)C(C)C)[C@@H](C)O)C(C)C)C(C)C [KIPPVVKDTLKKVAKGVLSAVAGALS]
MIC (Escherichia coli MG1655): 2 µM (≈ 5.18 µg/mL)
MIC [2]: 16 µM (≈ 41.4 µg/mL)
MIC [3]: 16 µM (≈ 41.4 µg/mL)
MIC [4]: ≥ 181 µM

CC[C@H](C)[C@H](NC(=O)CN)C(=O)NCC(=O)N[C@@H](CCCCN)C(=O)N[C@@H](Cc1c[nH]c2ccccc12)C(=O)N[C@@H](CC(C)C)C(=O)N[C@@H](Cc1cnc[nH]1)C(=O)N[C@@H](CO)C(=O)N[C@@H](C)C(=O)N[C@@H](CCCCN)C(=O)N[C@@H](CCCCN)C(=O)N[C@@H](Cc1ccccc1)C(=O)NCC(=O)N[C@@H](CCCCN)C(=O)N[C@@H](C)C(=O)N[C@@H](Cc1ccccc1)C(=O)N[C@H](C(=O)NCC(=O)N[C@@H](CCC(=O)O)C(=O)N[C@H](C(=O)N[C@@H](CCSC)C(=O)N[C@@H](CC(N)=O)C(=O)N[C@@H](CO)C(=O)O)[C@@H](C)CC)C(C)C [GIGKWLHSAKKFGKAFVGEIMNS]
MIC [5]: 8 µM (≈ 20 µg/mL)
MIC [6]: 16 µM (≈ 40.1 µg/mL)
MIC [7]: 8 µM and 20 µM
MIC [8]: ≥ 32 µM
MIC [9]: ≥ 45.3 µM
MIC [10]: ≥ 32 µM
MIC [11]: 22.6 µM (≈ 56.7 µg/mL)
MIC [12]: 22.6 µM (≈ 56.7 µg/mL)
MIC [13]: 20 µM and 40 µM
MIC [14]: 16 µM (≈ 40.1 µg/mL)

CC[C@H](C)[C@H](NC(=O)[C@H](CCC(=O)O)NC(=O)CNC(=O)[C@@H](NC(=O)[C@H](Cc1ccccc1)NC(=O)[C@H](C)NC(=O)[C@H](CCCCN)NC(=O)CNC(=O)[C@H](Cc1ccccc1)NC(=O)[C@H](CCCCN)NC(=O)[C@H](CCCCN)NC(=O)[C@H](C)NC(=O)[C@H](CO)NC(=O)[C@H](Cc1cnc[nH]1)NC(=O)[C@H](CC(C)C)NC(=O)[C@H](Cc1ccccc1)NC(=O)[C@H](CCCCN)NC(C)=O)C(C)C)C(=O)N[C@@H](CCSC)C(=O)N[C@@H](CC(N)=O)C(=O)N[C@@H](CO)C(N)=O [KFLHSAKKFGKAFVGEIMNS]
MIC [15]: ≥ 200 µM
MIC [16]: ≥ 200 µM
MIC [17]: ≥ 400 µM

CC[C@H](C)[C@H](NC(=O)[C@H](C)NC(=O)[C@@H](NC(=O)[C@H](C)NC(=O)CNC(=O)[C@H](CCCCN)NC(=O)[C@@H](NC(=O)[C@H](C)NC(=O)CNC(=O)[C@H](CCCCN)NC(=O)[C@H](CC(C)C)NC(=O)[C@@H](NC(=O)[C@H](CCCCN)NC(=O)[C@H](CCCCN)NC(=O)[C@H](CC(C)C)NC(=O)[C@@H](NC(=O)[C@H](CCCCN)NC(=O)[C@H](CCCCN)NC(=O)[C@@H](NC(=O)[C@H](CCCCN)NC(=O)[C@@H]1CCCN1C(=O)[C@H](CO)NC(=O)[C@H](CC(C)C)NC(=O)[C@H](CCCCN)NC(=O)[C@@H](N)CC(C)C)[C@@H](C)O)[C@@H](C)O)C(C)C)[C@@H](C)CC)[C@@H](C)CC)C(=O)N[C@@H](C)C(=O)N[C@@H](CO)C(=O)N[C@@H](CCSC)C(=O)N[C@@H](C)C(=O)O [LKLSPKTKKTLKKVLKGAIKGAIAIASMA]
MIC [18]: 5 µM (≈ 15 µg/mL)
MIC [19]: 2.5 µM (≈ 7.52 µg/mL)
MIC [20]: 2.5 µM (≈ 7.52 µg/mL)
MIC [21]: 2.5 µM (≈ 7.52 µg/mL)
MIC [22]: 2.5 µM (≈ 7.52 µg/mL)
MIC [23]: ≥ 80 µM
MIC [24]: 5 µM (≈ 15 µg/mL)
MIC [25]: 2.5 µM (≈ 7.52 µg/mL)
MIC [26]: 5 µM (≈ 15 µg/mL)
MIC [27]: 10 µM (≈ 30.1 µg/mL)
MIC [28]: 2.5 µM (≈ 7.52 µg/mL)
MIC [29]: 2.5 µM (≈ 7.52 µg/mL)
MIC [30]: 1.25 µM (≈ 3.76 µg/mL)
MIC [31]: 1.25 µM (≈ 3.76 µg/mL)
MIC [32]: 1.25 µM (≈ 3.76 µg/mL)
MIC [33]: 1.25 µM (≈ 3.76 µg/mL)
MIC [34]: 2.5 µM (≈ 7.52 µg/mL)
MIC [35]: 1.25 µM (≈ 3.76 µg/mL)
MIC [36]: 2.5 µM (≈ 7.52 µg/mL)
MIC [37]: 1.25 µM (≈ 3.76 µg/mL)
MIC [38]: 2.5 µM (≈ 7.52 µg/mL)

CC[C@H](C)[C@@H]1NC(=O)CNC(=O)[C@@H](NC(=O)[C@H](CC(C)C)NC(=O)[C@@H](NC(=O)[C@H](CO)NC(=O)[C@@H]2CCCN2C(=O)[C@H](CC(C)C)NC(=O)[C@@H](NC(=O)[C@H](CCCCN)NC(=O)[C@H](C)NC(=O)CNC(=O)[C@@H](NC(=O)[C@H](CCCCN)NC(=O)[C@H](CC(C)C)NC(=O)[C@H](CC(C)C)NC(=O)[C@H](C)NC(=O)CNC(=O)[C@H](CC(C)C)NC(=O)[C@@H](N)Cc2ccccc2)[C@@H](C)CC)C(C)C)C(C)C)CSSC[C@@H](C(N)=O)NC(=O)[C@H](CCCCN)NC(=O)[C@H](CCCCN)NC(=O)[C@H](Cc2ccccc2)NC1=O [FLGALLKIGAKVLPSVLCGIFKKC]
MIC (Klebsiella pneumoniae): 15 µM (≈ 37.7 µg/mL)
MIC (Staphylococcus aureus): 4 µM (≈ 10.1 µg/mL)
MIC (Vibrio cholerae N16961): 4.5 µM (≈ 11.3 µg/mL)
